# Experimental data: patent publication US9408847B2, “Combination therapy” (Novartis AG, priority 2012, dated 2016)
# Tested on: MCF7 tumor xenograft
# Test: MCF7 tumor xenograft model in vivo
# Details: female nude mice
# Protocol: MCF-7 cells were purchased from American Type Culture Collection (ATCC). They were tested free of mycoplasma and viral contamination in the IMPACT VIII PCR assay panel (RADIL, MU Research Animal Diagnostic Laboratory, Columbia, Mo.). They were cultured in EMEM medium (ATCC#30-2003) containing 10% heat inactivated fetal bovine serum, and were at passage 18 for this experiment. Female, nude mice from Harlan (Hsd:Athymic Nude-Foxn1nu) were used in this xenograft study. Mice received 17b-estradiol pellets (0.18 mg/pellet, 90-day release) (Innovative research of America Catalog # NE-121) implanted between the shoulder blades three days before cell implantation. Tumor volume and body weight were monitored throughout the experiment.
SMILES,T/T0 (monotherapy at 5 mg/kg),T/T0 (monotherapy at 75 mg/kg)
"COC1CC2CC[C@@H](C)[C@@](O)(O2)C(=O)C(=O)N2CCCC[C@H]2C(=O)OC(C(C)C[C@@H]2CCC(OCCO)[C@H](OC)C2)CC(=O)C(C)/C=C(\C)[C@@H](O)C(OC)C(=O)[C@H](C)CC(C)/C=C/C=C/C=C/1C (stereo in doubt) [Compound B, (1R,9S,12S,15R,16E,18R,19R,21R,23S,24E,26E,28E,30S,32S,35R)-1,18-dihydroxy-12-{(1R)-2-[(1S,3R,4R)-4-(2-hydroxyethoxy)-3-methoxycyclohexyl]-1-methylethyl}-19,30-dimethoxy-15,17,21,23,29,35-hexamethyl-11,36-dioxa-4-aza-tricyclo[30.3.1.04,9]hexatriaconta-16,24,26,28-tetraene-2,3,10,14,20-pentaone]",−21%,
CN(C)C(=O)c1cc2cnc(Nc3ccc(N4CCNCC4)cn3)nc2n1C1CCCC1 [Compound A],,−9%
